In patent US8927517B2, “Factors controlling skin and hair color” (Kao Corporation, priority 2012, dated 2015):

What was measured:
[1] = test system: 3D-HSSs (three-dimensional human skin substitutes containing NHEK and NHEM); assay: 3D-HSSs cultured with autophagy inducer or inhibitor (photographs, Western blotting); assay type: cell-based; conditions: HCQ 10 μM with endothelin-1 and SCF, 14 days
Procedure: Three-dimensional culture human skin models (3D-human skin substitutes; 3D-HSSs) were purchased from MatTek Co. (MEL-300A or B), and they were then maintained at 37° C. in 5% CO2 in EPI-100NMM-113 medium (MatTek Co.) according to a production manual included therewith.
3D-HSSs (three-dimensional human skin substitutes, reconstituted epidermal models containing NHEK and NHEM) were cultured together with an autophagy inducer verapamil (10 μM) or rapamycin (1 μM) for 14 days. The medium was exchanged with a fresh one every other day. After completion of the culture, Western blotting analysis was carried out on the culture, using a p62-specific antibody (MBL International) and an LC3-specific antibody (Cosmo Bio Co. Ltd. or MBL International) by the same procedures as those applied in Reference Example 1.
On the other hand, 3D-HSSs were cultured together with an autophagy inhibitor hydroxychloroquine (HCQ, 10 μM) in the presence of endothelin-1 and SCF for 14 days, and Western blotting analysis was then carried out on the culture.

[2] = test system: Skin tissues from a donor; assay: Lightness (L* value) of cultured human skin tissue with autophagy-regulating agent; assay type: cell-based; conditions: verapamil 10 μM, rapamycin 1 μM or HCQ 10 μM; cultured 8 days; colorimeter; FIG. 10
Procedure: Skin tissues were collected from a donor, and were then cultured in the presence or absence of an autophagy inducer verapamil (10 μM) or rapamycin (1 μM), or an autophagy inhibitor hydroxychloroquine (HCQ, 10 μM). After completion of the culture for 8 days, the lightness (L* value) of the cultured skin was measured with a colorimeter (Colorimeter; cyberDERM).

SMILES	darkening of 3D-HSSs ([1]; FIG. 9C)	amount of p62 ([1]; FIG. 9D)	lightness (L* value) of the cultured skin [2]
CCN(CCO)CCCC(C)Nc1ccnc2cc(Cl)ccc12 (stereo not shown) [hydroxychloroquine]	became darkened	increased	decreased
COc1ccc(CCN(C)CCCC(C#N)(c2ccc(OC)c(OC)c2)C(C)C)cc1OC (stereo not shown) [verapamil]			increased
